Measured values from PubChem BioAssay (NCI).
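Exposure lasted 48 hours, with cells grown in 96-well plates and compounds tested at five concentrations. TGI is the concentration that stops growth completely.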

How the values were obtained:
Assay in all cases: growth of human tumour cells (NCI), 48 h
NCI-H522 lung = system: NCI-H522 lung
OVCAR-5 ovarian = system: OVCAR-5 ovarian
HS 578T breast = system: HS 578T breast
SF-539 CNS = system: SF-539 CNS
BT-549 breast = system: BT-549 breast
M14 melanoma = system: M14 melanoma
SNB-19 CNS = system: SNB-19 CNS
MCF7 breast = system: MCF7 breast
OVCAR-3 ovarian = system: OVCAR-3 ovarian
SF-268 CNS = system: SF-268 CNS
ACHN renal = system: ACHN renal
CAKI-1 renal = system: CAKI-1 renal
T-47D breast = system: T-47D breast
COLO 205 colon = system: COLO 205 colon
CCRF-CEM leukemia = system: CCRF-CEM leukemia
UACC-62 melanoma = system: UACC-62 melanoma
SK-MEL-2 melanoma = system: SK-MEL-2 melanoma
786-0 renal = system: 786-0 renal
HOP-92 NSCLC = system: HOP-92 NSCLC

SMILES	TGI (NCI-H522 lung) [µM]	TGI (OVCAR-5 ovarian) [µM]	TGI (HS 578T breast) [µM]	TGI (SF-539 CNS) [µM]	TGI (BT-549 breast) [µM]	TGI (M14 melanoma) [µM]	TGI (SNB-19 CNS) [µM]	TGI (MCF7 breast) [µM]	TGI (OVCAR-3 ovarian) [µM]	TGI (SF-268 CNS) [µM]	TGI (ACHN renal) [µM]	TGI (CAKI-1 renal) [µM]	TGI (T-47D breast) [µM]	TGI (COLO 205 colon) [µM]	TGI (CCRF-CEM leukemia) [µM]	TGI (UACC-62 melanoma) [µM]	TGI (SK-MEL-2 melanoma) [µM]	TGI (786-0 renal) [µM]	TGI (HOP-92 NSCLC) [µM]
CCCCc1ccc(-n2sc3ncc([N+](=O)[O-])cc3c2=O)cc1	9.36	40.6	30.8	39.7	33.9	43.7	48.6	40.5	46.1	37.1	28	26.2	25.9	32.3	32.4	21.8	7.43	28.2	–
COC(=O)/C=C(/C(=O)OC)c1cc2ccc3c([nH]c4ccccc43)c(C)c-2c1	5.83	13.6	8.91	31.5	23.1	16	23.2	13.3	12	21.4	> 100	> 100	> 100	3.3	10.8	17.8	26.8	20.1	5.43
COc1cccc(C2ON=C(c3ccccc3)N2C23CC4CC(CC(C4)C2)C3)c1 (centres undefined)	> 10	> 10	> 10	> 10	> 10	> 10	> 10	> 10	> 10	> 10	> 10	> 10	> 10	> 10	> 10	> 10	> 10	> 10	> 10
COC(=O)c1ccc(NCc2c(O)ccc(O)c2Br)cc1Cl	3.51	28.6	95.4	30.4	24.7	33.3	> 100	32.2	20.9	41.2	30.6	29.9	43.3	33.4	> 100	30.3	40.8	32.6	28.4
COc1ccc(P2(=S)SP(=S)(c3ccc(Cl)cc3)S2)cc1 (centres undefined)	> 100	> 100	> 100	> 100	> 100	> 100	> 100	> 100	> 100	> 100	> 100	> 100	> 100	> 100	> 100	> 100	> 100	> 100	> 100
Cn1cc(S(=O)(=O)NC(=O)Nc2ccc(Cl)cc2)c2ccccc21	69.3	> 100	> 100	> 100	> 100	> 100	> 100	> 100	> 100	> 100	> 100	81	> 100	> 100	> 100	79.9	> 100	> 100	> 100
C[N+](C)(C)/N=C/c1ccc(O)c(O)c1	> 100	> 100	> 100	> 100	> 100	> 100	> 100	> 100	> 100	> 100	> 100	> 100	> 100	> 100	> 100	> 100	> 100	> 100	> 100
N#CCCN(CCC#N)c1ccc(C(N=Nc2ccccc2)=Nc2ccc(Cl)cc2)cc1	> 100	> 100	> 100	> 100	> 100	> 100	> 100	> 100	> 100	> 100	> 100	> 100	> 100	> 100	> 100	> 100	–	> 100	> 100
COC(=O)c1c2c(cc3c1CC1(C3)Cc3cc4c(c(C(C)=O)c3C1)CCC4)C=CC2 (centres undefined)	> 31.6	> 31.6	> 31.6	> 31.6	> 31.6	> 31.6	> 31.6	> 31.6	> 31.6	> 31.6	> 31.6	> 100	> 31.6	> 31.6	> 31.6	> 31.6	> 31.6	> 31.6	> 31.6
COc1ccc(/C=C/C(=N/NC(=O)N/N=C(/C=C/c2ccc(OC)cc2)C(C)(C)CN2CCCCC2)C(C)(C)CN2CCCCC2)cc1	3.59	8.16	4.28	4.11	3.58	3.12	6.4	6.26	3.81	–	3.19	4.33	4.1	3.1	3.39	–	3.1	3.15	3.08
O=C1CCCC(=O)N1n1c(Cc2ccccc2)n[nH]c1=O	> 100	> 100	> 100	–	> 100	> 100	–	> 100	> 100	> 100	> 100	> 100	> 100	> 100	> 100	> 100	> 100	> 100	> 100
COc1cc2c(cc1OC)CN1CCCc3cc(OC)c(OC)cc3C1C2 (centres undefined)	> 100	> 100	> 100	50.1	> 100	> 100	> 100	95.2	> 100	> 100	> 100	> 100	> 100	> 100	> 100	> 100	–	> 100	> 100
c1cc2nnc1SCCCSc1ccc(nn1)SCCCSc1ccc(nn1)SCCCS2	> 100	> 100	> 100	> 100	> 100	> 100	> 100	> 100	> 100	> 100	> 100	> 100	> 100	> 100	> 100	> 100	> 100	> 100	–
CCC/C(Cl)=N\OC(=O)Nc1cccc(C(F)(F)F)c1	3.42	46.1	70.2	35.1	24.7	32.7	> 100	30.1	40.2	67.8	29.8	33.1	55.3	8.51	5.67	55.3	31.4	29.5	–
S=C(N/N=C/c1ccccn1)Nc1ccc(Cl)cc1	0.18	> 100	> 67.2	14.4	> 68.1	–	> 39	> 100	> 100	> 45.7	1.66	30.5	> 100	> 100	1.92	1.51	> 100	16.1	> 57.6
CN1C(=O)C(C(N)=O)C2CC1(C)Oc1ccccc12 (centres undefined)	> 100	> 100	> 100	–	> 100	> 100	> 100	> 100	> 100	> 100	> 100	> 100	> 100	> 100	> 100	> 100	> 100	> 100	> 100
C[n+]1c2ccccc2n2c3ccccc3c(NCCc3ccccn3)c(C#N)c21	3.95	> 21.7	12.1	12.6	> 23.3	6.56	> 26.8	2.97	> 25.7	> 22.4	> 20.1	6.68	13.7	5.88	9.11	–	7.73	7.58	> 100
CSc1c(C(=O)Nc2ccc(C)cc2)c(N)n(N)c(=O)c1C#N	> 100	> 100	> 100	> 100	> 100	> 100	> 100	> 100	> 100	> 100	–	> 100	> 100	> 100	> 100	> 100	> 100	> 100	–
C=CCc1cc(C=C(C#N)C#N)cc(OC)c1O	> 100	> 100	> 100	> 100	> 100	> 100	> 100	> 100	> 100	–	> 100	> 100	> 100	> 100	> 100	> 100	> 100	> 100	> 100
CC(C)(C)OC(=O)NCCC(=O)NC1(c2cc3ccccc3s2)CCCCC1	26.2	39.9	48.8	29.2	32.5	34.2	37.1	41	33.2	–	61.4	48.6	33.3	32.9	27.5	49.1	44.9	35.7	33.7
